# In PMC6199744, “Development of Chemical Proteomics for the Folateome and Analysis of the Kinetoplastid Folateome” (ACS Infectious Diseases, 2018):
# Read-outs that look alike come from different tables or passages of the source.
# Columns and labels:
# Assay type in all cases: binding
# [1] = biological target: T1, HeLa cell extract proteins (Homo sapiens, UniProt O75390)
# T1 construct: endogenous in cells; host or cells: HeLa cell extract
# T1 sequence (O75390 28-466): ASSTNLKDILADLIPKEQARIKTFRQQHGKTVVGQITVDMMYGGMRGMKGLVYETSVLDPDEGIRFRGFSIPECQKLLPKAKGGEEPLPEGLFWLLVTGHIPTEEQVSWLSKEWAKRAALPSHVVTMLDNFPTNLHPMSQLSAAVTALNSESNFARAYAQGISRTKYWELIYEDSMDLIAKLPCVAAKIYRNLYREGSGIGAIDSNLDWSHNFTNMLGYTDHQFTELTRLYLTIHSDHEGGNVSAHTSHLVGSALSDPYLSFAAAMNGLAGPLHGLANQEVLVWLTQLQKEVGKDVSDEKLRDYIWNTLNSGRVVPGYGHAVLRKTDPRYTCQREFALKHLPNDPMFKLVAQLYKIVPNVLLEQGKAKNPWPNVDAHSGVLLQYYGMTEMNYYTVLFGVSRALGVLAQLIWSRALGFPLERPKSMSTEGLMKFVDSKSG
# [2] = biological target: T2, HeLa cell extract proteins (Homo sapiens, UniProt Q01813)
# T2 construct: endogenous in cells; host or cells: HeLa cell extract
# T2 sequence (Q01813 1-784): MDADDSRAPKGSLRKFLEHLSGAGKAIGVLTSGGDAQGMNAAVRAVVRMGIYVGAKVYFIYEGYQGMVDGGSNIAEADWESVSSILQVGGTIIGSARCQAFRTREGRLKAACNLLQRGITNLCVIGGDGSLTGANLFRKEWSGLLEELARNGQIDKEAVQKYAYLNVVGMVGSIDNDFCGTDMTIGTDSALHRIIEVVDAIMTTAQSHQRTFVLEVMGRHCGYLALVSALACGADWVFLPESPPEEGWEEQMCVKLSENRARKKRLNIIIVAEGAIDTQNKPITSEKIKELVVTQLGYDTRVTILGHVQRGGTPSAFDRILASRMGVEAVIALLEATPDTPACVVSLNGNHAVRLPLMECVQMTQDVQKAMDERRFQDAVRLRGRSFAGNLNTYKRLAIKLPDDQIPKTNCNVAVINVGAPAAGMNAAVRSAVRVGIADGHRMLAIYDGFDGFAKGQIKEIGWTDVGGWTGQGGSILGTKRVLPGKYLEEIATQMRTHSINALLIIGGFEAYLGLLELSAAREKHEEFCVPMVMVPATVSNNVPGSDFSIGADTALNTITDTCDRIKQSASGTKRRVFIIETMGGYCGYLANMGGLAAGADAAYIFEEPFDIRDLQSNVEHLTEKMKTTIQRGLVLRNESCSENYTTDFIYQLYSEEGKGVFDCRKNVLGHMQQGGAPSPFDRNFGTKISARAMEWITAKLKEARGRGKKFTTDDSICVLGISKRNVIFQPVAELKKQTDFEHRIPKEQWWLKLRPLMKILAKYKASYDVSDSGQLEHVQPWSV
# [3] = biological target: T3, HeLa cell extract proteins (Homo sapiens, UniProt O60701)
# T3 construct: endogenous in cells; host or cells: HeLa cell extract
# T3 sequence (O60701 1-494): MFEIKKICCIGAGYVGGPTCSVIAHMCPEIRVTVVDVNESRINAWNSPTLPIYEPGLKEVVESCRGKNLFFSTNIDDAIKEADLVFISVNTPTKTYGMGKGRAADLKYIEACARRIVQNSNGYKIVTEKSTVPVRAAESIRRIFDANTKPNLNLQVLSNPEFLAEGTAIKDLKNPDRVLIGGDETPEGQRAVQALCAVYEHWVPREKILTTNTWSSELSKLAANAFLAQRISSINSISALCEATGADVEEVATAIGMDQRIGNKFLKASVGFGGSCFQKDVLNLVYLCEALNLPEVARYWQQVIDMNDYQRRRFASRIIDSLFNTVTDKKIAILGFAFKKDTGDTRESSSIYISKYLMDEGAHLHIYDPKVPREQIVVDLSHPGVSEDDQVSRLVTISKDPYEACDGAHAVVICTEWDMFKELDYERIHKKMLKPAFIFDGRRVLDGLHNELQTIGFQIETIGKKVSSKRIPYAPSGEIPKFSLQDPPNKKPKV
# [4] = biological target: T4, HeLa cell extract proteins (Homo sapiens, UniProt P49720)
# T4 construct: endogenous in cells; host or cells: HeLa cell extract
# T4 sequence (P49720 1-205): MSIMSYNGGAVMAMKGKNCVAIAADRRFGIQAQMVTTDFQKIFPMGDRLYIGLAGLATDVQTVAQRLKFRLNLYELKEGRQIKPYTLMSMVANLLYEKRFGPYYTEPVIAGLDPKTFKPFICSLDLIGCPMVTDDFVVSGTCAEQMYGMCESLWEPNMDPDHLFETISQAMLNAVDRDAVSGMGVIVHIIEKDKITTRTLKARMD
# [5] = biological target: T5, HeLa cell extract proteins (Homo sapiens, UniProt P49588)
# T5 construct: endogenous in cells; host or cells: HeLa cell extract
# T5 sequence (P49588 1-968): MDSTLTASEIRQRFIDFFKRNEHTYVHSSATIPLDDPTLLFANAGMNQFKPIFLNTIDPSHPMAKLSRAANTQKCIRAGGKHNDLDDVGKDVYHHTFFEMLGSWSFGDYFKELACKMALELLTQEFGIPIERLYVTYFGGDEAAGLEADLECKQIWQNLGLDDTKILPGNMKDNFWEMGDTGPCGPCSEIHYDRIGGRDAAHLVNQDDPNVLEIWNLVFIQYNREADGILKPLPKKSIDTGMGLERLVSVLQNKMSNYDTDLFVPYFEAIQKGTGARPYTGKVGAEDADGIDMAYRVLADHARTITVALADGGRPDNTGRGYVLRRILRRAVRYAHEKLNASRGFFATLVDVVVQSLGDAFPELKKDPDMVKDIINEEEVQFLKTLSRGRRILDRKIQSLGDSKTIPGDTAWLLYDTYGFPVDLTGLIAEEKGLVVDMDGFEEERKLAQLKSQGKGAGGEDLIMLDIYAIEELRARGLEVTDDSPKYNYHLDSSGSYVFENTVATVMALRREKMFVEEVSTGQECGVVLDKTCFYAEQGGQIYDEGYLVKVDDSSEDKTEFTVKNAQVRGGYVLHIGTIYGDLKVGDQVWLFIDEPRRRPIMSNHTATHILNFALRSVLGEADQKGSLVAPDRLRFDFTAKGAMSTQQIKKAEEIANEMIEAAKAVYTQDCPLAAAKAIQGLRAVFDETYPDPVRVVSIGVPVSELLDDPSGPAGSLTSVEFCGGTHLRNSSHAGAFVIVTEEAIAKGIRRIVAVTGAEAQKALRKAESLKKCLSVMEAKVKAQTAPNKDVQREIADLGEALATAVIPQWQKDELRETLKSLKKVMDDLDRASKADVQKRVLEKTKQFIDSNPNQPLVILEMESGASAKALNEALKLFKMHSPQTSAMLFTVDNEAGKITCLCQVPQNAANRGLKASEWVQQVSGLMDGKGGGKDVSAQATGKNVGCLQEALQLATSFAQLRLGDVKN
Structure (SMILES),"fold changes relative to vehicle control ([1]; protein CS, HeLa)","fold changes relative to vehicle control ([2]; captured protein PFKP, HeLa)","fold changes relative to vehicle control ([3]; protein UGDH, HeLa)","fold changes relative to vehicle control ([4]; protein PSMB3, HeLa)","fold changes relative to vehicle control ([5]; protein AARS, HeLa)","fold changes relative to vehicle control ([1]; HeLa, captured protein CS)","fold changes relative to vehicle control ([2]; HeLa, protein PFKP)","fold changes relative to vehicle control ([3]; HeLa, protein UGDH)","fold changes relative to vehicle control ([4]; HeLa, protein PSMB3)","fold changes relative to vehicle control ([5]; HeLa, protein AARS)",further results
CCCCCCOc1cccc(Cc2cnc(N)nc2N)c1 [compound 2],1.99,1.01,1.76,1.53,1.96,–,–,–,–,–,–
NCCOCCOCC(=O)Nc1nc2ncc(CNc3ccc(C(=O)NC(CCC(=O)O)C(=O)O)cc3)nc2c(=O)[nH]1 (centres unmarked) [compound 6],–,–,–,–,–,1.32,0.95,1.41,1.12,1.28,–
CCCCCCOc1ccc(Cc2cnc(N)nc2N)cc1 [compound 1],1.38,1.05,1.13,1.13,1.15,–,–,–,–,–,–
"Nc1nc2c(c(=O)[nH]1)N(C=O)C(CNc1ccc(C(=O)N[C@@H](CCC(=O)O)C(=O)O)cc1)CN2 (some centres unmarked) [LEU, leucovorin]",–,–,–,–,–,1.05,0.88,1.16,1.13,1.02,–
NCCCNc1ccc(C(=O)NC(CCC(=O)O)C(=O)O)cc1 (centres unmarked) [compound 7],–,–,–,–,–,1.3,0.93,0.9,0.92,1,–
"Nc1nc2[nH]cc(CCc3ccc(C(=O)N[C@@H](CCC(=O)O)C(=O)O)cc3)c2c(=O)[nH]1 [PTX, pemetrexed]",–,–,–,–,–,–,–,–,–,–,fold changes relative to vehicle control [1]: 1.2; fold changes relative to vehicle control [2]: 0.9; fold changes relative to vehicle control [3]: 1.21; fold changes relative to vehicle control [4]: 0.99; fold changes relative to vehicle control [5]: 1.1
Nc1nc2cccc(-c3ccccc3)c2n1Cc1ccc(Cl)c(Cl)c1 [compound 3],1.02,1.02,0.78,0.92,0.95,–,–,–,–,–,–
